Results: patent publication US20250049036A1 (priority 2021, published 2025)

Legend:
Colletotrichum capsici = Colletotrichum capsici (anthracnose) mycelial radial growth on potato dextrose agar; format: cell-based; settings: Colletotrichum truncatum, 168 h, 25° C., seven days, read-out: control compared to the untreated check
Method in brief: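 Compounds in 0.3% DMSO were mixed into potato dextrose agar, and each plate was seeded with a 5 mm mycelial disc from an actively growing culture. Plates were incubated at 25° C and 60% relative humidity for seven days. Radial growth was compared with untreated control.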

Phakopsora pachyrhizi = Phakopsora pachyrhizi test on soybean, preventive, greenhouse; format: in vivo; settings: preventive spray on soybean, inoculated one day after treatment, read-out: control (efficacy, disease severity) compared to the untreated check
Method in brief: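 Preventive protocol: plants inoculated with a 2×10^5 P. pachyrhizi conidial suspension one day after spray application at the stated rate, then incubated at 22-24 °C and 80-90% RH. Compound was applied from 2% DMSO/acetone diluted in emulsified water.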

Alternaria solani [1] = assay: Alternaria solani (early blight of tomato/potato) mycelial radial growth on potato dextrose agar; format: cell-based; settings: 168 h, 25° C., seven days, read-out: control compared to the untreated check
Description: (§1) The compounds were dissolved in 0.3% dimethyl sulfoxide and then added to potato dextrose agar medium just prior to dispensing it into petri dishes. 5 mL medium, with the compound in the desired concentration, was dispensed into 60 mm sterile petri-plates. After solidification, each plate was seeded with a 5 mm size mycelial disc taken from the periphery of an actively growing virulent culture plate. The plates were incubated in growth chambers at 25° C. temperature and 60% relative humidity for seven days and the radial growth was measured and compared to the one of the untreated control.

Botrytis cinerea [2] = assay: Botrytis cinerea test on tomato, preventive, greenhouse; format: in vivo; settings: preventive spray on bean/chili plants (heading: tomato), inoculated one day after treatment, read-out: control (efficacy, disease severity) compared to the untreated check
Pyricularia oryzae = assay: microbe, parasite or virus in culture; format: cell-based; settings: 168 h, read-out: control compared to the untreated check
Parastagonospora nodorum = Parastagonospora nodorum (PARANO) spore growth inhibition in liquid medium, 96-well microtiter plate, OD 600; format: cell-based; settings: spore suspension in PDB liquid medium, 18° C., 5-6 days, OD at 600, read-out: control compared to the untreated check
Method in brief: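 Read-out is percent growth inhibition from OD at 600 after 5-6 days at 18° C. Compounds, dissolved in DMSO, were diluted in potato dextrose broth and combined in equal volume with a 10^5 spores/ml suspension of PARANO.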

Phytophthora infestans [3] = assay: microbe, parasite or virus in culture; format: cell-based; settings: 168 h, read-out: control compared to the untreated check
Phytophthora infestans [4] = assay: whole plant or invertebrate; format: in vivo, Phytophthora infestans on tomato; settings: in Solanum lycopersicum, read-out: control (efficacy, disease severity) compared to the untreated check
Botrytis cinerea [5] = assay: Botrytis cinerea liq. (BOTRCI) spore growth inhibition in liquid medium, 96-well microtiter plate, OD 405 nm; format: cell-based; settings: spore suspension in YBA liquid medium, 22° C., 5-6 days, OD at 405 nm, read-out: control compared to the untreated check
Method in brief: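 Spore suspension of B. cinerea (10^4 spores/ml) in YBA liquid medium mixed 1:1 with compound diluted from DMSO. Incubated at 22° C. for 5-6 days. Growth read as OD 405 nm; percent inhibition derived from treatment, untreated-control and blank readings.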

Alternaria solani [6] = assay: Alternaria solani test in tomato, preventive, greenhouse; format: in vivo; settings: preventive spray on tomato, inoculated one day after treatment, read-out: control (efficacy, disease severity) compared to the untreated check
Description: The respective compound was dissolved in 2% dimethyl sulfoxide/acetone and then mixed with water containing an emulsifier to the calibrated spray volume of 30 mL. Each spray solution was poured into a spray bottle for further application.
To test the preventive activity of a compound, healthy young tomato plants, raised in the greenhouse, were sprayed with the active compound preparation at the stated application rate inside the spray cabinets using hollow cone nozzles. One day after treatment, the plants were inoculated with a spore suspension containing 0.24×10^6 Alternaria solani inoculum. The inoculated plants were then kept in a greenhouse chamber at 22-24° C. temperature and 90-95% relative humidity for disease expression.
A visual assessment of the compound's performance was carried out by rating the disease severity (0 100% scale) on treated plants 3, 7, 10 and 15 days after application. Efficacy (% control) of the compound was calculated by comparing the disease rating in the treatment with the one of the untreated control. The treated plants were also assessed for plant damage by recording symptoms like necrosis, chlorosis and stunting.

Venturia Inequalis = assay: Venturia inequalis (VENTIN) spore growth inhibition in liquid medium, 96-well microtiter plate, OD 600; format: cell-based; settings: spore suspension in PDB liquid medium, 18° C., 15-18 days, OD at 600, read-out: control compared to the untreated check
Description: Potato dextrose (PDB) liquid medium containing a VENTIN (10^5 spores/ml) spore suspension was prepared. For the inhibition assay, each test compound was solved in dimethyl sulfoxide. 100 μl of the test compound in media-solution was added to a 96-well microtiter plate, consequently, the same volume (100 μl) of spore suspension was added to the well making the final test concentrations and the treated plate was incubated at 18° C. for 15-18 days. The growth inhibition was evaluated by measuring the OD at 600. Percent inhibition was calculated with the below formula: […]

Botrytis cinerea [7] = assay: Botrytis cinerea (gray mold) mycelial radial growth on potato dextrose agar; format: cell-based; settings: 168 h, 22° C., seven days, read-out: control compared to the untreated check
Description: as §1, with “22°” for “25°”, “90%” for “60%”

Cn1ccc2cc(C(=O)NC(C)(C)Cc3ccccc3)cnc21 [Compound 1, 1-methyl-N-(2-methyl-1-phenylpropan-2-yl)-1H-pyrrolo[2,3-b]pyridine-5-carboxamide]
≥ 70%: inhibition of growth at 300 ppm (Colletotrichum capsici) | pest or weed control at 500 ppm (Phakopsora pachyrhizi) | inhibition of growth at 300 ppm (Alternaria solani [1]) | pest or weed control at 500 ppm (Botrytis cinerea [2]) | inhibition of growth at 300 ppm (Pyricularia oryzae)

Cn1ccc2cc(C(=O)NC(C)(C)C(C)(C)c3ccccc3)cnc21 [Compound 5, N-(2,3-dimethyl-3-phenylbutan-2-yl)-1-methyl-1H-pyrrolo[2,3-b]pyridine-5-carboxamide]
≥ 70%: pest or weed control at 500 ppm (Phakopsora pachyrhizi) | inhibition of growth at 300 ppm (Alternaria solani [1]) | inhibition of growth at 300 ppm (Parastagonospora nodorum)

CC(c1ccccc1Cl)C(C)(C)NC(=O)c1cnc2c(ccn2C)c1 (stereo not drawn) [Compound 7, N-(3-(2-chlorophenyl)-2-methylbutan-2-yl)-1-methyl-1H-pyrrolo[2,3-b]pyridine-5-carboxamide]
≥ 70%: inhibition of growth at 300 ppm (Alternaria solani [1]) | inhibition of growth at 300 ppm (Parastagonospora nodorum) | inhibition of growth at 300 ppm (Pyricularia oryzae)

Cn1ccc2cc(C(=O)NC3(Cc4ccccc4)CCCC3)cnc21 [Compound 10, N-(1-benzylcyclopentyl)-1-methyl-1H-pyrrolo[2,3-b]pyridine-5-carboxamide]
≥ 70%: inhibition of growth at 300 ppm (Phytophthora infestans [3]) | inhibition of growth at 300 ppm (Colletotrichum capsici) | pest or weed control at 500 ppm (Phakopsora pachyrhizi) | pest or weed control at 500 ppm (Phytophthora infestans [4]) | inhibition of growth at 300 ppm (Alternaria solani [1]) | inhibition of growth at 300 ppm (Parastagonospora nodorum)

Cn1ccc2cc(C(=O)NC3(Cc4ccccc4)CCCCC3)cnc21 [Compound 11, N-(1-benzylcyclohexyl)-1-methyl-1H-pyrrolo[2,3-b]pyridine-5-carboxamide]
≥ 70%: inhibition of growth at 300 ppm (Colletotrichum capsici) | inhibition of growth at 300 ppm (Alternaria solani [1]) | inhibition of growth at 300 ppm (Parastagonospora nodorum) | inhibition of growth at 300 ppm (Pyricularia oryzae)

Cn1ccc2cc(C(=O)NC3(Cc4cccc(Cl)c4)CCCCC3)cnc21 [Compound 12, N-(1-(3-chlorobenzyl)cyclohexyl)-1-methyl-1H-pyrrolo[2,3-b]pyridine-5-carboxamide]
≥ 70%: inhibition of growth at 300 ppm (Colletotrichum capsici) | inhibition of growth at 300 ppm (Alternaria solani [1]) | inhibition of growth at 300 ppm (Pyricularia oryzae)

Cn1ccc2cc(C(=O)NC(C)(C)Cc3ccccc3F)cnc21 [Compound 13, N-(1-(2-fluorophenyl)-2-methylpropan-2-yl)-1-methyl-1H-pyrrolo[2,3-b]pyridine-5-carboxamide]
≥ 70%: inhibition of growth at 300 ppm (Phytophthora infestans [3]) | inhibition of growth at 300 ppm (Colletotrichum capsici) | inhibition of growth at 300 ppm (Alternaria solani [1]) | inhibition of growth at 300 ppm (Parastagonospora nodorum) | inhibition of growth at 300 ppm (Botrytis cinerea [5]) | inhibition of growth at 300 ppm (Pyricularia oryzae)

Cn1ccc2cc(C(=O)NC(C)(C)Cc3cccc(C(F)(F)F)c3)cnc21 [Compound 14, 1-methyl-N-(2-methyl-1-(3-(trifluoromethyl)phenyl)propan-2-yl)-1H-pyrrolo[2,3-b]pyridine-5-carboxamide]
≥ 70%: inhibition of growth at 300 ppm (Alternaria solani [1]) | inhibition of growth at 300 ppm (Botrytis cinerea [5])

Cn1ccc2cc(C(=O)NC(C)(C)Cc3cc(F)cc(F)c3)cnc21 [Compound 15, N-(1-(3,5-difluorophenyl)-2-methylpropan-2-yl)-1-methyl-1H-pyrrolo[2,3-b]pyridine-5-carboxamide]
≥ 70%: pest or weed control at 500 ppm (Alternaria solani [6])

Cn1ccc2cc(C(=O)NC(C)(C)Cc3cccc(F)c3)cnc21 [Compound 21, N-(1-(3-fluorophenyl)-2-methylpropan-2-yl)-1-methyl-1H-pyrrolo[2,3-b]pyridine-5-carboxamide]
≥ 70%: inhibition of growth at 300 ppm (Colletotrichum capsici) | pest or weed control at 500 ppm (Phakopsora pachyrhizi) | inhibition of growth at 300 ppm (Pyricularia oryzae) | pest or weed control at 500 ppm (Alternaria solani [6])

Cn1ccc2cc(C(=O)NC(C)(C)Cc3ccccc3Br)cnc21 [Compound 26]
≥ 70%: pest or weed control at 500 ppm (Phakopsora pachyrhizi) | inhibition of growth at 300 ppm (Parastagonospora nodorum) | pest or weed control at 500 ppm (Alternaria solani [6])

CC(C)CC(C)(Cc1ccccc1)NC(=O)c1cnc2[nH]ccc2c1 (stereo not drawn) [Compound 28, N-(2,4-dimethyl-1-phenylpentan-2-yl)-1H-pyrrolo[2,3-b] pyridine-5-carboxamide]
≥ 70%: inhibition of growth at 300 ppm (Phytophthora infestans [3]) | inhibition of growth at 300 ppm (Colletotrichum capsici) | pest or weed control at 500 ppm (Phakopsora pachyrhizi) | inhibition of growth at 300 ppm (Alternaria solani [1]) | inhibition of growth at 300 ppm (Parastagonospora nodorum)

Cn1ccc2cc(C(=O)NC(C)(C)Cc3ccc(Cl)cc3F)cnc21 [Compound 47, N-(1-(4-chloro-2-fluorophenyl)-2-methylpropan-2-yl)-1-methyl-1H-pyrrolo[2,3-b]pyridine-5-carboxamide]
≥ 70%: pest or weed control at 500 ppm (Phakopsora pachyrhizi) | pest or weed control at 500 ppm (Phytophthora infestans [4]) | inhibition of growth at 300 ppm (Alternaria solani [1]) | inhibition of growth at 300 ppm (Parastagonospora nodorum) | inhibition of growth at 300 ppm (Pyricularia oryzae) | inhibition of growth at 300 ppm (Venturia Inequalis)

CC(C)CC(C)(Cc1ccccc1)NC(=O)c1cnc2c(c1)c(Br)cn2C (stereo not drawn) [Compound 51, 3-bromo-N-(2,4-dimethyl-1-phenylpentan-2-yl)-1-methyl-1H-pyrrolo[2,3-b]pyridine-5-carboxamide]
≥ 70%: pest or weed control at 500 ppm (Phakopsora pachyrhizi) | inhibition of growth at 300 ppm (Pyricularia oryzae) | pest or weed control at 500 ppm (Alternaria solani [6])

Cn1cc(Cl)c2cc(C(=O)NC(C)(C)Cc3ccccc3F)cnc21 [Compound 59, 3-chloro-N-(1-(2-fluorophenyl)-2-methylpropan-2-yl)-1-methyl-1H-pyrrolo[2,3-b]pyridine-5-carboxamide]
≥ 70%: pest or weed control at 500 ppm (Phakopsora pachyrhizi) | inhibition of growth at 300 ppm (Pyricularia oryzae) | pest or weed control at 500 ppm (Alternaria solani [6])

Cn1cc(C2CC2)c2cc(C(=O)NC(C)(C)Cc3ccccc3Cl)cnc21 [Compound 85, N-(1-(2-chlorophenyl)-2-methylpropan-2-yl)-3-cyclopropyl-1-methyl-1H-pyrrolo[2,3-b]pyridine-5-carboxamide]
≥ 70%: pest or weed control at 500 ppm (Phakopsora pachyrhizi) | pest or weed control at 500 ppm (Phytophthora infestans [4]) | inhibition of growth at 300 ppm (Alternaria solani [1]) | inhibition of growth at 300 ppm (Parastagonospora nodorum) | inhibition of growth at 300 ppm (Pyricularia oryzae)

CCC(O)(CC)C(NC(=O)c1cnc2c(ccn2C)c1)c1ccc(F)cc1 (stereo not drawn) [Compound 131, N-(2-ethyl-1-(4-fluorophenyl)-2-hydroxybutyl)-1-methyl-1H-pyrrolo[2,3-b]pyridine-5-carboxamide]
≥ 70%: pest or weed control at 500 ppm (Phakopsora pachyrhizi) | inhibition of growth at 300 ppm (Pyricularia oryzae) | pest or weed control at 500 ppm (Alternaria solani [6])

C=C(C)CC(C)(Cc1ccccc1F)NC(=O)c1cnc2cc[nH]c2c1 (stereo not drawn) [Compound 144, N-(1-(2-fluorophenyl)-2,4-dimethylpent-4-en-2-yl)-1H-pyrrolo[3,2-b] pyridine-6-carboxamide]
≥ 70%: inhibition of growth at 300 ppm (Phytophthora infestans [3]) | inhibition of growth at 300 ppm (Colletotrichum capsici) | pest or weed control at 500 ppm (Phakopsora pachyrhizi) | pest or weed control at 500 ppm (Phytophthora infestans [4]) | inhibition of growth at 300 ppm (Alternaria solani [1]) | inhibition of growth at 300 ppm (Parastagonospora nodorum) | inhibition of growth at 300 ppm (Botrytis cinerea [5]) | inhibition of growth at 300 ppm (Botrytis cinerea [7]) | pest or weed control at 500 ppm (Botrytis cinerea [2]) | inhibition of growth at 300 ppm (Venturia Inequalis)
